Data taken from patent US20080003311A1, “Rosmarinus extracts for inhibiting/treating skin aging” (SOCIETE L'OREAL, S.A., priority 1999, published 2008).

System: normal human dermal fibroblasts
Assay: Incorporation of radioactive proline (collagen synthesis) into cultures of normal human dermal fibroblasts
Type: cell-based
Method: The study was conducted by measuring the incorporation of radioactive proline into cultures of normal human dermal fibroblasts. The fibroblast cultures were prepared according to conventional cell culture methods, i.e., in MEM/M199 medium marketed by Gibco in the presence of sodium bicarbonate (1.87 mg/ml), of L-glutamine (2 mM), of penicillin (50 IU/ml) and of 10% of fetal calf serum (Gibco). The assay was carried out on cell cultures at 80% confluency, in a 24-well plate. […] The labeling with tritiated proline (L-[2,3-^3H]-proline sold by Amersham, 33 (μCi/ml) was carried out for 24 hours. The level of tritiated proline incorporated was measured at the end of the assay by acid precipitation of the proteins on filters and liquid scintillation counting. […] A positive control (vitamin C at 20 (g/ml) known to stimulate collagen synthesis was introduced into the assay as a reference. The results of this assay, expressed as percentages of activation, are reported in the following Table I: […]

O=C1O[C@H]([C@@H](O)CO)C(O)=C1O [Vitamin C]
cpm (tritiated proline incorporated) (vitamin C at 20 (g/ml, positive control), untreated cells 7498 cpm): 13091 cpm | percentage of activation of proline incorporation (vitamin C at 20 (g/ml, versus untreated cells)): 75%
